Laboratory results from ChEMBL document CHEMBL1201862, “PubChem BioAssay data set” (2004).
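Dose response: 5 concentrations. Exposure: 48 h. Format: 96-well plates. Endpoint: linear interpolation; highest concentration if not reached. GI50 marks 50% less growth.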 Calls of active or inactive are those of the source. Cut-off read from the data, not from the text of the source: active = GI50 up to about 1.1 µM and inactive = higher.

Experiments:
Assay in all cases: NCI tumour cell line growth inhibition, 48 h
[1] = system: A549
[2] = system: CCRF-CEM
[3] = system: HCT-116
[4] = system: HL-60
[5] = system: K562
[6] = system: KM12
[7] = system: M14
[8] = system: MOLT-4
[9] = system: NCI-H23
[10] = system: OVCAR-3
[11] = system: OVCAR-4
[12] = system: SF-268
[13] = system: SF-295
[14] = system: SK-MEL-28
[15] = system: SK-MEL-2
[16] = system: SK-OV-3
[17] = system: SN12C
[18] = system: TK-10
[19] = system: UACC-257
[20] = system: UACC-62

CCOC(=O)/C=C/CC(C)(C)COC(C)=O
GI50 [1]: > 10 µM (inactive)
GI50 [2]: > 10 µM (inactive)
GI50 [3]: 6.1 µM (inactive)
GI50 [4]: > 10 µM (inactive)
GI50 [5]: 9.91 µM (inactive)
GI50 [6]: 0.811 µM (active)
GI50 [7]: 6.75 µM (inactive)
GI50 [8]: > 10 µM (inactive)
GI50 [9]: > 10 µM (inactive)
GI50 [10]: > 10 µM (inactive)
GI50 [11]: > 10 µM (inactive)
GI50 [12]: > 10 µM (inactive)
GI50 [13]: > 10 µM (inactive)
GI50 [14]: > 10 µM (inactive)
GI50 [15]: > 10 µM (inactive)
GI50 [16]: > 10 µM (inactive)
GI50 [17]: > 10 µM (inactive)
GI50 [18]: > 10 µM (inactive)
GI50 [19]: > 10 µM (inactive)
GI50 [20]: > 10 µM (inactive)

O=C1C(Cl)N(c2cccc([N+](=O)[O-])c2)C1c1c[nH]c2ccccc12 (stereo not given)
GI50 [1]: 22.1 µM (inactive)
GI50 [2]: 4.61 µM (inactive)
GI50 [3]: 19.2 µM (inactive)
GI50 [4]: 22.3 µM (inactive)
GI50 [5]: 19 µM (inactive)
GI50 [6]: 20.2 µM (inactive)
GI50 [7]: 16.1 µM (inactive)
GI50 [8]: 8.38 µM (inactive)
GI50 [9]: 22.2 µM (inactive)
GI50 [10]: 20.5 µM (inactive)
GI50 [11]: 18.1 µM (inactive)
GI50 [12]: 29.6 µM (inactive)
GI50 [13]: 17.8 µM (inactive)
GI50 [14]: 23.7 µM (inactive)
GI50 [15]: 14.4 µM (inactive)
GI50 [16]: 11.1 µM (inactive)
GI50 [17]: 28.6 µM (inactive)
GI50 [18]: 20.4 µM (inactive)
GI50 [19]: 20.7 µM (inactive)
GI50 [20]: 13.8 µM (inactive)

O=C1NP23(OCCO2)Oc2ccccc2C3(C(F)(F)F)O1 (stereo not given)
GI50 [1]: > 100 µM (inactive)
GI50 [2]: > 100 µM (inactive)
GI50 [3]: > 100 µM (inactive)
GI50 [4]: > 100 µM (inactive)
GI50 [5]: > 100 µM (inactive)
GI50 [6]: > 100 µM (inactive)
GI50 [7]: > 100 µM (inactive)
GI50 [8]: > 100 µM (inactive)
GI50 [9]: > 100 µM (inactive)
GI50 [10]: > 100 µM (inactive)
GI50 [11]: > 100 µM (inactive)
GI50 [12]: > 100 µM (inactive)
GI50 [13]: > 100 µM (inactive)
GI50 [14]: > 100 µM (inactive)
GI50 [15]: > 100 µM (inactive)
GI50 [16]: > 100 µM (inactive)
GI50 [17]: > 100 µM (inactive)
GI50 [18]: > 100 µM (inactive)
GI50 [19]: > 100 µM (inactive)
GI50 [20]: > 100 µM (inactive)
